Laboratory results taken from patent US10583109B2, “Use of silver(I) complexes as anticancer agents” (University of Johannesburg, priority 2012, dated 2020).

How the values were obtained:
[1] = system: SNO-oesophageal cancer cells; experiment: Morphological features of SNO-oesophageal cancer cells by inverse light microscopy; assay type: cell-based; settings: 24 hours of treatment
Description: Morphological studies were done by means of an Axiovert 25 inverted microscope (Carl Zeiss, Göttingen, Germany) with Axio Vision 3.1 software (Carl Zeiss, Göttingen, Germany) using an magnification of 100×.
After 24 hours of treatment with complexes (1)-(5) including their ligands the cells were examined under said Axiovert 25 inverted light microscope. This was done to determine how the complexes of the present invention influence morphology which was compared to 100 μM Cisplatin (apoptotic control) and 15% H2O2 (necrotic control).
Light microscope images indicating the morphology of the differentially treated SNO-oesophageal cancer cells is shown in FIG. 8. An untreated control (a) including 100 μM Cisplatin (b), an apoptotic control and 15% H2O2 (c), and a necrotic control was included. Cells were treated with 10 μM silver(I) thiocyanate phosphine complexes (1)-(5) as well as their separate ligands (Ligand-1 to Ligand-5, respectively) (FIGS. 8d to 8m). Black arrows represent signs of apoptosis, while the white arrows represent signs of necrosis.
An Axiovert 25 inverted microscope was used to examine if these complexes affect the morphological features of the malignant cells in any other way. This was done at a magnification of 100× with the use of Axio Version 3.1 software (Carl Zeiss, Gottingen, Germany).
Morphological studies where done after 24 hours of treatment to determine how these compounds influence/change specific features of the malignant SNO-oesophageal cancer cells, compared to the untreated (UC) and 1% DMSO vehicle control. The treated cancer cells including their controls were examined under an Axiovert 25 inverted light microscope (Carl Zeiss, Göttingen, Germany) with Axio Vision 3.1 software (Carl Zeiss, Göttingen, Germany) using a 100× magnification. In FIG. 19, the morphology of the different controls including Ligand-10 and complexes (10)-(12) are represented. To predict the targeting mechanisms of these compounds, the treated cells were compared to 100 μM Cisplatin (apoptotic control) and 25% H2O2 (necrotic control).

[2] = system: SNO-oesophageal cancer cells; experiment: Flow cytometric analysis (Annexin-V FITC / PI) of apoptosis and/or necrosis in SNO-oesophageal cancer cells; assay type: cell-based; settings: 14 μM, 24 hours
Description: To determine if either apoptosis or necrosis occurred, the cells were double labelled with Annexin-V FITC and Propidium Iodide (PI) by means of an Annexin-V FITC assay kit (Serotec, UK). This was done according to manufacturer's instructions with a few adjustments. Briefly, the cells (±3×10^5 cells/ml) were washed twice with cold phosphate buffered saline (PBS), followed by the addition of 100 μl 1× binding buffer. Two and a half microliters of Annexin-V along with 5 μl PI were added in the dark and was incubated for 15 minutes at room temperature. After incubation, 400 μl 1× binding buffer was added and cells were analysed using the FACSAria flow cytometer (BD Biosciences, San Jose, Calif.) with FACSDiva software (BD Biosciences, San Jose, Calif.) 492 nm (excitation) and 520 nm for Annexin and 488 nm and 575 nm(emission) for PI.
The cell membrane contains a negatively charged phosphatidylserine (PS) on the inner leaflet and is exposed when apoptosis or necrosis takes place. Annexin-V interacts with PS in both apoptotic and necrotic cells, making these cellular deaths undistinguishable. This is overcome by using PI as an alternative label that interacts with the exposed DNA of necrotic cells only, leading to the fluorescent detection of both these labels. Pie charts (FIG. 9) were constructed for all the controls (including Ligand-1 to Ligand-5) and the different silver(I) thiocyanate phosphine complexes (1)-(5).
Pie charts representing the four different flow cytometric quadrants of Annexin-V and […] to determine the mode of cellular death induced in differentially treated SNO-oesophageal cells are represented in FIG. 9. An untreated control (A), apoptotic control (B) and necrotic control (C) were included. Cells were treated with 10 μM of the different ligands including the silver(I) thiocyanate phosphine complexes (1)-(5). An average percentage was calculated for all segments where the SEM is n=3 for all treatments except for 15% H2O2 (n=2). The four segments represent the following: White segment—negative for FITC and PI, Light grey segment—positive for FITC but negative for PI, Dark grey segment—positive for PI but negative for FITC and Black segment—positive for both FITC and PI. Cells undergoing early apoptosis are represented by the light grey segment, while those of late apoptosis and primary necrosis are represented by the black segment. Necrotic cells are represented by the dark grey segment and intact viable cells are shown by the white segment.
Approximately 3×10^5 cells were washed with ice cold phosphate buffered saline solution (PBS). The cells were double labeled using an Annexin-V FITC assay kit adjusting the protocol. A 1× binding buffer (100 μl) was used to fix the cells. Annexin-V (2.5 μl) and Propidium Iodide (PI—5 μl) labels were added respectively followed by a 15 minute incubation, at room temperature, in the dark. After the incubation period, 400 μl of the 1× binding buffer was added, where counting of the cellular events was made using an FACSAria flow cytometer (BD Biosciences, San Jose, Calif.) with FACSDiva software (BD Biosciences, San Jose, Calif.). This technique in particular identifies whether predicted apoptotic cell death (or necrosis) was induced by these complexes.
As observed in FIG. 14, dot blots represent the mode of cellular death induced in the SNO-oesophageal cancer cells after 24 hours of treatment. FIG. 14(a): 0.1% DMSO, FIG. 14(b): 100 μM CDDP, FIG. 14(c): 25% H2O2, FIG. 14(d-i): complexes (6)-(9). An average percentage was calculated for all quadrants where the SEM is n=2 for all treatments. The four quadrants represent the following: Quadrant Q3 is negative for FITC and PI, Quadrant Q4 is positive for FITC but negative for PI, Quadrant Q1 is positive for PI but negative for FITC and Quadrant Q2 is positive for both FITC and PI. Cells undergoing early apoptosis are more likely to be found in Quadrant Q4 while those of late apoptosis and primary necrosis will be found in Quadrant Q2. […]

[3] = system: SNO-oesophageal cancer cells; assay type: cell-based; settings: for cancer cell death compared to the vehicle control: 14 μM, 24 hour treatment
[4] = system: MCF-7 breast cancer cells; experiment: AlamarBlue viability and proliferation assay of MCF-7 breast cancer cells; assay type: cell-based, human
Description: For the biological studies, MCF-7 breast cancer cells were obtained from an immortal cell line from human adenocarcinoma from (primary site) mammary gland and (metastatic site) pleural effusion (ATCC no HTB-22).
MCF-7 breast cancer cells were cultured in Dulbecco's modified Eagle's medium (DMEM), 13.53 g/L with sodium bicarbonate (NaHCO3), 3.7 g/L supplemented with 10% foetal bovine serum (FBS), 1% gentamycin and 5% Penicillin/Streptomycin/Fungizone in 75 cm^3 culture flasks. Cells were subcultured twice a week and incubated at 37° C. with 5% CO2 in a humidified atmosphere. Hanks balanced salt solution (HBSS), supplemented DMEM media and trypsin versene were warmed to 37° C. prior to subculturing. Cells were washed twice with 10 ml Hanks balanced salt solution for 1 minute and were then incubated for 4.5 to 5 minutes at 37° C. with 6 ml trypsin versene to remove the cells from the culture flask. To inactivate the trypsin versene, 10 ml supplemented DMEM was added and the cells were pelleted by centrifugation at 1028 g for 4 minutes with an Allegra™ 25R Centrifuge. The pellet was resuspended in 1 ml supplemented DMEM and 500 μl of the cell suspension was then added to 25 ml of supplemented DMEM media in 75 cm^3 culture flasks.
MCF-7 breast cancer cells, in terms of a first study, and SNO-oesophageal cancer cells, in terms of a second study, were treated with 10 μM silverthiocyanide complexes (1)-(5), as well as their ligands (Ligand-1 to Ligand-5) over a 24 hour incubation period. […] An untreated negative control (UT) was exposed to similar conditions as the treated cells and monitored during the experimental study.
The AlamarBlue® viability and proliferation assay of complexes (1)-(5) for the MCF-7 breast cancer cells is depicted in FIGS. 1A to 1F. The percentage viability of control samples determined by the AlamarBlue® viability and proliferation assay is depicted in FIG. 1A. […] A significant difference (P<0.001) between the control and the treated samples was calculated using Student's T-test and is indicated by an asterisk.
(§1) This Figure depicts the percentage viability of MCF-7 cells treated with various concentrations of complex (1) as determined by the AlamarBlue® viability and proliferation assay. […] The asterisk indicates a significant difference between a sample and the control (P<0.001) as calculated with Student's T-test.
as §1, with “FIG. 1C to FIG. 1F represent the dose dependant studies of complexes (2) to (5), respectively. In each of these Figures,” for “This Figure depicts”, “complexes (2) to (5) was” for “complex (1) as”, “T-test. […]” for “T-test.”

c1ccc(P(c2ccccc2)c2ccccc2)cc1 [Ligand-10, PPh3, reference compound]
signs of apoptosis / cell death (morphology) ([1]; 14 μM): minimal cell death similar to apoptosis
influence on cellular viability and PS externalisation, flow cytometry [2]: did not influence
viability ([3]; 14 µM): 99.03%

Cc1ccc([P+](c2ccc(C)cc2)(c2ccc(C)cc2)[Ag]2([P+](c3ccc(C)cc3)(c3ccc(C)cc3)c3ccc(C)cc3)[N+]#C[S][Ag]([P+](c3ccc(C)cc3)(c3ccc(C)cc3)c3ccc(C)cc3)([P+](c3ccc(C)cc3)(c3ccc(C)cc3)c3ccc(C)cc3)[N+]#C[S]2)cc1 [complex (2), [AgSCN{P(4-MeC6H4)3}2]2]
decrease in viability and proliferation ([4]; 10 μM, 24 hours after treatment, compared to the untreated control): ~70%
necrotic cell death (morphology) ([1]; 10 μM): Necrotic cell death was also observed

Clc1ccc([P+](c2ccc(Cl)cc2)(c2ccc(Cl)cc2)[Ag]2([P+](c3ccc(Cl)cc3)(c3ccc(Cl)cc3)c3ccc(Cl)cc3)[N+]#C[S][Ag]([P+](c3ccc(Cl)cc3)(c3ccc(Cl)cc3)c3ccc(Cl)cc3)([P+](c3ccc(Cl)cc3)(c3ccc(Cl)cc3)c3ccc(Cl)cc3)[N+]#C[S]2)cc1 [complex (4), [AgSCN{P(4-ClC6H4)3}2]2]
cytotoxic activity (ranking) ([4]; MCF-7 cells): strongest

[Cl][Ag]([PH](c1ccccc1)(c1ccccc1)c1ccccc1)([PH](c1ccccc1)(c1ccccc1)c1ccccc1)[PH](c1ccccc1)(c1ccccc1)c1ccccc1 [complex (10), AgCl(PPh3)3]
necrotic cell death (morphology) ([1]; 14 μM): Minimal necrotic cell death
signs of apoptosis / cell death (morphology) ([1]; 14 μM): multiple signs of apoptosis
cancer cell death compared to the vehicle control [3]: significantly induced cancer cell death

[Br][Ag]([PH](c1ccccc1)(c1ccccc1)c1ccccc1)([PH](c1ccccc1)(c1ccccc1)c1ccccc1)[PH](c1ccccc1)(c1ccccc1)c1ccccc1 [complex (11), AgBr(PPh3)3]
necrotic cell death (morphology) ([1]; 14 μM): Minimal necrotic cell death
signs of apoptosis / cell death (morphology) ([1]; 14 μM): multiple signs of apoptosis
apoptotic cells (early and late stages), flow cytometry [2]: 47.23%
necrotic cells positive for PI, flow cytometry [2]: 14.73%
cancer cell death compared to the vehicle control [3]: significantly induced cancer cell death

AgCN(PPh3)3 [complex (12)]
necrotic cell death (morphology) ([1]; 14 μM): Minimal necrotic cell death
signs of apoptosis / cell death (morphology) ([1]; 14 μM): multiple signs of apoptosis
cancer cell death compared to the vehicle control [3]: significantly induced cancer cell death
